Test results as given in PubChem BioAssay (NCI).
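Where inhibition never reached the appropriate level, the endpoint shown equals the highest concentration tested. Otherwise, values were interpolated linearly from a five-concentration, 48-hour dose response in 96-well plates. Here, GI50 denotes the concentration required for 50% inhibition of growth. TGI denotes the concentration required for complete inhibition of growth.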

system: RXF 393 renal; experiment: growth of human tumour cells (NCI), 48 h

Compound | TGI [µM] | GI50 [µM]
CC(=O)C(CN(C(C)C)C(C)C)C(c1ccccc1)c1c(O)c2ccccc2oc1=O (configuration not stated) | > 100 | 
O=C1NC2(CCCCC2)C2CCCCC(O)C12 (configuration not stated) | > 100 | 
COc1ccc(-n2/c(=N/C(=S)N(C)C)ss/c2=N\C(=S)N(C)C)cc1 | > 100 | 
CCOC(=O)C1=C(C)CC2C(=O)OC(=O)C2C1(C)C (configuration not stated) | > 100 | 
CCOC(=O)C(Sc1ccccc1)c1c(OC)cc(=O)oc1/C=[N+](/[O-])c1ccc(N(C)C)cc1 (configuration not stated) | 32.5 | 
CNC(=O)c1cc(Oc2ccc3nc(NC(=O)Nc4ccc(Cl)c(C(F)(F)F)c4)sc3c2)ccn1 | 4.57 | 1.93
C/C(CCn1[nH]c(=O)ccc1=O)=N\O | > 100 | 
CC(=O)N1[C@H](C(=O)O)CS[C@H]1c1ccncc1 | > 100 | 
COc1ccc(C2=CSc3cc(Cl)c(C)cc3S(=O)(=O)N2C(C)=O)cc1 | > 100 | 35.6
CC(=O)OC1COC(n2c(=S)n(-c3ccc(C)cc3)c(=O)c3ccccc32)C(OC(C)=O)C1OC(C)=O (configuration not stated) | > 100 | 
CCNC1C2(CCCCC2)NC(=O)C12CCCCC2 (configuration not stated) | > 100 | 
c1cc2c(cc1NC1=NCCO1)CCC2 | > 10 | 

system: NCI-H522 lung; experiment: growth of human tumour cells (NCI), 48 h

Compound | GI50 [µM] | TGI [µM]
NC(CSC(c1ccccc1)(c1ccccc1)c1ccc2c(c1)OCO2)C(=O)O (configuration not stated) | 0.208 | 0.535
C=CCc1cc(OC)c2c(c1)C(O)CC(c1ccc(OC)c(OC)c1)O2 (configuration not stated) |  | > 100
O=C(NCCNc1nccc(-c2c(-c3cccc(O)c3)nc3sccn23)n1)c1ccccc1O | 4.24 | 16.9
CCCCCCCC(=O)SCC/C=C/[C@@H]1CC(=O)NCc2cccc(n2)C2=N[C@@](C)(CS2)C(=O)N[C@@H](C(C)C)C(=O)N1 | 0.12 | 1.85
CC(C)=CCCc1c(C)ccc2c1C(=O)C(=O)C(C(C)C)=C2 |  | 6.39
COC(=O)[C@@H](C)C[C@H](Cc1ccc(F)cc1)NC(=O)c1csc([C@@H](C[C@H](C(C)C)N(C)C(=O)[C@@H](NC(=O)[C@H]2CCCCN2C)C(C)C)OC(C)=O)n1 | 0.0002 | 0.00082
COc1ccc2c(c1)C(=O)/C(=C/c1ccc(OCC(=O)Nc3nccs3)cc1)O2 | 0.191 | 0.393
Cc1cnc(NC(=O)C(Cc2ccccc2)NC(=O)c2ccccc2)s1 (configuration not stated) | 1.53 | 21.8
CCOC(=O)COc1cccc2c1C(=O)CCO2 |  | > 100
Nc1ccc(C(=O)N/C(=C\c2ccc3c(c2)OCO3)c2nc3[nH]c(=S)[nH]c(=O)c3[nH]2)cc1 |  | > 100
O[C@H]1[C@H]2c3cc4c(cc3CN3CCC(=C[C@@H]1O)[C@H]23)OCO4 |  | 3.07
O=C(O)c1cc(C(=O)O)cc(N2C(=O)c3ccccc3C2=O)c1 |  | > 100
CNC(=O)c1ccccc1Nc1nc(Nc2ccc(N3CCOCC3)cc2OC)ncc1Cl | 0.764 | 9.66
COc1c2ccoc2c(/C=C/C=O)c2oc(-c3ccccc3)cc(=O)c12 | 17.6 | > 100
CCN(CC)CC(C(=O)Nc1c(C)cccc1C)/C(C)=N\NC(=O)C[N+](C)(C)C (configuration not stated) |  | > 100
O=[S@@]1Nc2ccc(Br)cc2S1 |  | 68.6
CC(=O)C(CN(C(C)C)C(C)C)C(c1ccccc1)c1c(O)c2ccccc2oc1=O (configuration not stated) |  | > 100
COc1ccc(-n2/c(=N/C(=S)N(C)C)ss/c2=N\C(=S)N(C)C)cc1 |  | 16.6
CCOC(=O)C1=C(C)CC2C(=O)OC(=O)C2C1(C)C (configuration not stated) |  | > 100
Oc1ccc(Cl)cc1-c1cc(-c2ccccc2Cl)[nH]n1 | 3.26 | > 100
CNC(=O)c1cc(Oc2ccc3nc(NC(=O)Nc4ccc(Cl)c(C(F)(F)F)c4)sc3c2)ccn1 | 2.54 | > 100
COc1ccccc1NC(=O)CC(=O)n1nc(C)c(N=Nc2ccccc2C(=O)O)c1C |  | > 100
CC1(C)OC(=O)C(=Cc2ccc(O)cc2)C(=O)O1 |  | > 100
COc1ccc(C2=CSc3cc(Cl)c(C)cc3S(=O)(=O)N2C(C)=O)cc1 | 53.9 | > 100
CC(=O)OC1COC(n2c(=S)n(-c3ccc(C)cc3)c(=O)c3ccccc32)C(OC(C)=O)C1OC(C)=O (configuration not stated) |  | > 100
COc1cccc(NC(=O)CC(=O)n2nc(C)c(N=Nc3ccccc3)c2C)c1 |  | > 100
CCCCCCCCSC1=CC(=O)c2nc3ccccc3c3ccnc1c23 | 62.8 | > 100
O=c1n(CC2CO2)c(=O)n(CC2CO2)n1CC1CO1 (configuration not stated) | 12.8 | > 49.2

system: SW-620 colon; experiment: growth of human tumour cells (NCI), 48 h

Compound | GI50 [µM] | TGI [µM]
NC(CSC(c1ccccc1)(c1ccccc1)c1ccc2c(c1)OCO2)C(=O)O (configuration not stated) | 0.396 | > 100
C=CCc1cc(OC)c2c(c1)C(O)CC(c1ccc(OC)c(OC)c1)O2 (configuration not stated) |  | > 100
O=C(NCCNc1nccc(-c2c(-c3cccc(O)c3)nc3sccn23)n1)c1ccccc1O | 5.86 | 48.4
CCCCCCCC(=O)SCC/C=C/[C@@H]1CC(=O)NCc2cccc(n2)C2=N[C@@](C)(CS2)C(=O)N[C@@H](C(C)C)C(=O)N1 | 6.33 | > 33.3
CC(C)=CCCc1c(C)ccc2c1C(=O)C(=O)C(C(C)C)=C2 |  | 7.05
COC(=O)[C@@H](C)C[C@H](Cc1ccc(F)cc1)NC(=O)c1csc([C@@H](C[C@H](C(C)C)N(C)C(=O)[C@@H](NC(=O)[C@H]2CCCCN2C)C(C)C)OC(C)=O)n1 |  | > 16.7
COc1ccc2c(c1)C(=O)/C(=C/c1ccc(OCC(=O)Nc3nccs3)cc1)O2 | 2.88 | 10.2
Cc1cnc(NC(=O)C(Cc2ccccc2)NC(=O)c2ccccc2)s1 (configuration not stated) | 14 | 30.6
CCOC(=O)COc1cccc2c1C(=O)CCO2 |  | > 100
CSc1ccc(/C=C2\CN(C)C/C(=C\c3ccc(SC)cc3)C2=O)cc1 |  | > 100
Nc1ccc(C(=O)N/C(=C\c2ccc3c(c2)OCO3)c2nc3[nH]c(=S)[nH]c(=O)c3[nH]2)cc1 |  | > 100
O[C@H]1[C@H]2c3cc4c(cc3CN3CCC(=C[C@@H]1O)[C@H]23)OCO4 |  | > 36.9
COC(=O)[C@@]12C3=NO[C@]1(C(=O)OC)C(O[Si](C)(C)C(C)(C)C)[C@H]1OC(C)(C)O[C@H]1[C@@H]2C(OCc1ccccc1)CC3 (some centres not stated) |  | > 100
O=C(O)c1cc(C(=O)O)cc(N2C(=O)c3ccccc3C2=O)c1 |  | > 100
CNC(=O)c1ccccc1Nc1nc(Nc2ccc(N3CCOCC3)cc2OC)ncc1Cl | 0.314 | > 100
COc1c2ccoc2c(/C=C/C=O)c2oc(-c3ccccc3)cc(=O)c12 | 2.16 | 5.21
CCN(CC)CC(C(=O)Nc1c(C)cccc1C)/C(C)=N\NC(=O)C[N+](C)(C)C (configuration not stated) |  | > 100
O=[S@@]1Nc2ccc(Br)cc2S1 |  | > 100
CC(=O)C(CN(C(C)C)C(C)C)C(c1ccccc1)c1c(O)c2ccccc2oc1=O (configuration not stated) |  | > 100

Compound | GI50 [µM] | TGI [µM]
COc1ccc2c(c1)C1(C=N2)CCN(C(C)=O)CC1 |  | > 100
O=C1NC2(CCCCC2)C2CCCCC(O)C12 (configuration not stated) |  | > 100
COc1ccc(-n2/c(=N/C(=S)N(C)C)ss/c2=N\C(=S)N(C)C)cc1 |  | > 100
CCOC(=O)C1=C(C)CC2C(=O)OC(=O)C2C1(C)C (configuration not stated) |  | > 100
Oc1ccc(Cl)cc1-c1cc(-c2ccccc2Cl)[nH]n1 | 77.2 | > 100
CCOC(=O)C(Sc1ccccc1)c1c(OC)cc(=O)oc1/C=[N+](/[O-])c1ccc(N(C)C)cc1 (configuration not stated) |  | 32.2
CNC(=O)c1cc(Oc2ccc3nc(NC(=O)Nc4ccc(Cl)c(C(F)(F)F)c4)sc3c2)ccn1 | 2.99 | > 100
C/C(CCn1[nH]c(=O)ccc1=O)=N\O |  | > 100
COc1ccccc1NC(=O)CC(=O)n1nc(C)c(N=Nc2ccccc2C(=O)O)c1C |  | > 100
CC(=O)N1[C@H](C(=O)O)CS[C@H]1c1ccncc1 |  | > 100
CC1(C)OC(=O)C(=Cc2ccc(O)cc2)C(=O)O1 |  | > 100
COc1ccc(C2=CSc3cc(Cl)c(C)cc3S(=O)(=O)N2C(C)=O)cc1 | 38.7 | > 100
CC(=O)OC1COC(n2c(=S)n(-c3ccc(C)cc3)c(=O)c3ccccc32)C(OC(C)=O)C1OC(C)=O (configuration not stated) |  | > 100
COc1cccc(NC(=O)CC(=O)n2nc(C)c(N=Nc3ccccc3)c2C)c1 |  | > 100
O=C(O)CCSC(=O)Nc1cccc(F)c1 |  | > 100
CCCCCCCCSC1=CC(=O)c2nc3ccccc3c3ccnc1c23 | > 100 | > 100
CCNC1C2(CCCCC2)NC(=O)C12CCCCC2 (configuration not stated) |  | > 100
O=c1n(CC2CO2)c(=O)n(CC2CO2)n1CC1CO1 (configuration not stated) | 22.5 | > 100
c1cc2c(cc1NC1=NCCO1)CCC2 |  | > 10

system: LOX IMVI melanoma; experiment: growth of human tumour cells (NCI), 48 h

Compound | GI50 [µM] | TGI [µM]
NC(CSC(c1ccccc1)(c1ccccc1)c1ccc2c(c1)OCO2)C(=O)O (configuration not stated) | 0.577 | > 43.6
